In ChEMBL document CHEMBL1201862, “PubChem BioAssay data set” (2004):
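Cultured in 96-well plates, cells were exposed to test compound for 48 hours across five concentrations. The concentration for 50% growth inhibition is given as GI50.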 Activity calls are given as the source filed them. Rule as the data show it: active = GI50 up to about 1.1 µM and inactive = higher.

Columns and labels:
Assay in all cases: NCI-60 cell line screen, 48 h
A498 = tested on: A498
CAKI-1 = tested on: CAKI-1
CCRF-CEM = tested on: CCRF-CEM
COLO 205 = tested on: COLO 205
HCT-15 = tested on: HCT-15
HOP-62 = tested on: HOP-62
K562 = tested on: K562
MDA-MB-231 = tested on: MDA-MB-231
Malme-3M = tested on: Malme-3M
NCI-H226 = tested on: NCI-H226
NCI-H23 = tested on: NCI-H23
NCI/ADR-RES = tested on: NCI/ADR-RES
OVCAR-3 = tested on: OVCAR-3
OVCAR-4 = tested on: OVCAR-4
SN12C = tested on: SN12C
SNB-75 = tested on: SNB-75
T47D = tested on: T47D
UACC-62 = tested on: UACC-62
BT-549 = tested on: BT-549

Measured: GI50

C/C(=C\c1ccc2c(c1)OCO2)[N+](=O)[O-]
active: CCRF-CEM < 0.01 µM
1.96 µM: HCT-15
inactive: A498 7.23 µM | CAKI-1 2.28 µM | COLO 205 1.66 µM | HOP-62 3.56 µM | K562 1.64 µM | MDA-MB-231 6.49 µM | Malme-3M 2.84 µM | NCI-H226 3.84 µM | NCI-H23 2.46 µM | NCI/ADR-RES 6.04 µM | OVCAR-3 1.66 µM | OVCAR-4 4.4 µM | SN12C 3.38 µM | SNB-75 5.16 µM | T47D 1.64 µM | UACC-62 2.01 µM

CCOC1OCCCC1Br (centres undefined)
> 100 µM: HCT-15
inactive: A498 > 100 µM | CAKI-1 > 100 µM | CCRF-CEM > 100 µM | COLO 205 > 100 µM | HOP-62 > 100 µM | K562 > 100 µM | MDA-MB-231 > 100 µM | Malme-3M > 100 µM | NCI-H226 > 100 µM | NCI-H23 > 100 µM | NCI/ADR-RES > 100 µM | OVCAR-3 > 100 µM | OVCAR-4 > 100 µM | SN12C > 100 µM | SNB-75 > 100 µM | T47D > 100 µM | UACC-62 72.1 µM

C/C(=N/NC(=S)Nc1ccc(Cl)cc1)c1cccc(/C(C)=N\NC(=S)Nc2ccc(Cl)cc2)n1
2.47 µM: HCT-15
inactive: A498 20.4 µM | CAKI-1 3.72 µM | CCRF-CEM 1.68 µM | COLO 205 3.56 µM | HOP-62 2.76 µM | K562 5.02 µM | MDA-MB-231 4.14 µM | Malme-3M 2.59 µM | NCI-H226 3.54 µM | NCI-H23 13.2 µM | NCI/ADR-RES 2.59 µM | OVCAR-3 1.49 µM | OVCAR-4 13.4 µM | SN12C 10.7 µM | SNB-75 7.48 µM | T47D 30.7 µM | UACC-62 3.48 µM

COc1ccc(/C=C2\C=Cc3ccccc32)cc1OC
inactive: A498 39.4 µM | CAKI-1 > 100 µM | CCRF-CEM 57.1 µM | COLO 205 > 100 µM | HOP-62 > 100 µM | K562 29.8 µM | MDA-MB-231 78.3 µM | Malme-3M > 100 µM | NCI-H226 28.4 µM | NCI-H23 24 µM | NCI/ADR-RES > 100 µM | OVCAR-3 > 100 µM | OVCAR-4 29.9 µM | SN12C 60 µM | SNB-75 20.6 µM | T47D 47.3 µM | UACC-62 23.1 µM
> 100 µM: HCT-15

Clc1cc(C(c2cc(Cl)sc2Cl)c2cc(Cl)sc2Cl)c(Cl)s1
inactive: A498 > 100 µM | CAKI-1 > 100 µM | CCRF-CEM > 100 µM | COLO 205 > 100 µM | HOP-62 > 100 µM | K562 > 100 µM | MDA-MB-231 > 100 µM | Malme-3M 74.1 µM | NCI-H226 > 100 µM | NCI-H23 > 100 µM | NCI/ADR-RES > 100 µM | OVCAR-3 > 100 µM | OVCAR-4 > 100 µM | SN12C > 100 µM | SNB-75 > 100 µM | T47D > 100 µM | UACC-62 > 100 µM
> 100 µM: HCT-15

COc1cc(OC)c2nc(C)c3c(c2c1)SCC3
inactive: A498 18.6 µM | CAKI-1 16.1 µM | CCRF-CEM > 100 µM | COLO 205 > 100 µM | HOP-62 18.2 µM | K562 > 100 µM | MDA-MB-231 21.1 µM | Malme-3M 24.7 µM | NCI-H226 20.4 µM | NCI-H23 31.9 µM | NCI/ADR-RES 27.4 µM | OVCAR-3 19.2 µM | OVCAR-4 18.8 µM | SN12C 25.5 µM | T47D 26.3 µM | UACC-62 22.9 µM
42.3 µM: HCT-15

CC1=NN(c2cccc(Cl)c2)C2(SCC(=O)N2c2nc3ccccc3s2)/C1=C\c1ccccc1O (centres undefined)
inactive: A498 11 µM | CAKI-1 21.4 µM | CCRF-CEM 15.1 µM | HOP-62 20.9 µM | K562 5.65 µM | MDA-MB-231 20.2 µM | NCI-H226 34.3 µM | NCI-H23 16 µM | NCI/ADR-RES 19.7 µM | OVCAR-3 15.8 µM | OVCAR-4 21.4 µM | T47D 3.99 µM
14.6 µM: HCT-15

O=C1OC([C@H](O)c2cccnc2)c2ccccc21 (some centres undefined)
> 10 µM: HCT-15
inactive: CAKI-1 > 10 µM | CCRF-CEM > 10 µM | COLO 205 > 10 µM | HOP-62 > 10 µM | K562 > 10 µM | MDA-MB-231 > 10 µM | NCI-H226 > 10 µM | NCI-H23 > 10 µM | NCI/ADR-RES > 10 µM | OVCAR-3 > 10 µM | OVCAR-4 > 10 µM | SN12C > 10 µM | SNB-75 > 10 µM | T47D > 10 µM | UACC-62 > 10 µM

CCCCCCCCCC(O)CC(=O)c1c(O)cccc1O (centres undefined)
inactive: A498 30.5 µM | CAKI-1 21.7 µM | CCRF-CEM 46.3 µM | COLO 205 30.1 µM | HOP-62 16 µM | K562 22.1 µM | MDA-MB-231 21.4 µM | Malme-3M 16 µM | NCI-H226 17.4 µM | NCI-H23 22 µM | NCI/ADR-RES 18.4 µM | OVCAR-3 21.9 µM | OVCAR-4 16.7 µM | SN12C 31.3 µM | SNB-75 18.7 µM | T47D 25.2 µM
18.2 µM: HCT-15

CN(C)c1ccc(C2CC(C)(O)Oc3cc4c(cc32)OCO4)cc1 (centres undefined)
inactive: CAKI-1 66.2 µM | CCRF-CEM 33.6 µM | COLO 205 23.4 µM | HOP-62 62.4 µM | K562 48 µM | MDA-MB-231 18.2 µM | Malme-3M 67 µM | NCI-H226 3.86 µM | NCI-H23 71.8 µM | NCI/ADR-RES 35.2 µM | OVCAR-3 64.3 µM | SN12C 25.4 µM | SNB-75 25.3 µM | T47D 48.6 µM | UACC-62 21.6 µM
29.9 µM: HCT-15

COc1ccc(-n2cnc3c2=NC(C)(C)NC=3C(N)=O)c(OC)c1
inactive: A498 > 100 µM | CAKI-1 > 100 µM | CCRF-CEM > 100 µM | COLO 205 > 100 µM | HOP-62 > 100 µM | K562 > 100 µM | MDA-MB-231 > 100 µM | Malme-3M > 100 µM | NCI-H226 > 100 µM | NCI-H23 > 100 µM | NCI/ADR-RES > 100 µM | OVCAR-3 > 100 µM | OVCAR-4 > 100 µM | SN12C > 100 µM | SNB-75 > 100 µM | T47D > 100 µM | UACC-62 > 100 µM
> 100 µM: HCT-15

Cn1c(-c2ccc(-c3cc(-c4cccs4)c(-c4cccs4)n3C)cc2)cc(-c2cccs2)c1-c1cccs1
inactive: CAKI-1 > 100 µM | CCRF-CEM > 100 µM | COLO 205 > 100 µM | HOP-62 > 100 µM | K562 > 100 µM | MDA-MB-231 > 100 µM | NCI-H226 > 100 µM | NCI/ADR-RES > 100 µM | OVCAR-4 > 100 µM | SN12C > 100 µM | SNB-75 > 100 µM | T47D > 100 µM | UACC-62 > 100 µM
> 100 µM: HCT-15

CC1(C)N=c2[nH]cnc2=C(C(N)=O)N1
> 100 µM: HCT-15
inactive: A498 > 100 µM | CAKI-1 > 100 µM | CCRF-CEM > 100 µM | COLO 205 > 100 µM | HOP-62 > 100 µM | K562 > 100 µM | MDA-MB-231 > 100 µM | Malme-3M > 100 µM | NCI-H226 > 100 µM | NCI-H23 > 100 µM | NCI/ADR-RES > 100 µM | OVCAR-3 > 100 µM | OVCAR-4 > 100 µM | SN12C > 100 µM | SNB-75 > 100 µM | T47D > 100 µM | UACC-62 > 100 µM

NNC(=O)c1nn[nH]c1SSc1[nH]nnc1C(=O)NN
> 100 µM: HCT-15
inactive: BT-549 > 100 µM | CAKI-1 > 100 µM | CCRF-CEM > 100 µM | COLO 205 > 100 µM | HOP-62 > 100 µM | MDA-MB-231 > 100 µM | NCI-H226 > 100 µM | NCI-H23 > 100 µM | NCI/ADR-RES > 100 µM | OVCAR-3 > 100 µM | OVCAR-4 > 100 µM | SN12C > 100 µM | SNB-75 > 100 µM | UACC-62 > 100 µM

O=C(OCCOCBr)c1ccccc1
> 100 µM: HCT-15
inactive: A498 > 100 µM | CAKI-1 > 100 µM | CCRF-CEM > 100 µM | COLO 205 > 100 µM | HOP-62 > 100 µM | K562 > 100 µM | Malme-3M > 100 µM | NCI-H226 > 100 µM | NCI-H23 > 100 µM | OVCAR-3 > 100 µM | OVCAR-4 > 100 µM | SN12C > 100 µM | SNB-75 > 100 µM | UACC-62 > 100 µM

COc1ccc(CC2C3=C(CCN2C(=O)C2CCC2)CC2(CC3)OCCO2)cc1O (centres undefined)
14.9 µM: HCT-15
inactive: A498 26.7 µM | CAKI-1 36.6 µM | CCRF-CEM 35.2 µM | COLO 205 22.8 µM | HOP-62 33.6 µM | K562 22.6 µM | MDA-MB-231 40.8 µM | Malme-3M 27.9 µM | NCI-H226 34.8 µM | NCI-H23 19.2 µM | NCI/ADR-RES 16.3 µM | OVCAR-3 18 µM | OVCAR-4 41.4 µM | SN12C 29.6 µM | SNB-75 15 µM | T47D 44.8 µM | UACC-62 46.1 µM

CCN(CC)CC1CCCCN1CC(=O)N1c2ccc(Br)cc2C(=O)Nc2cccnc21 (centres undefined)
inactive: A498 > 100 µM | CAKI-1 > 100 µM | CCRF-CEM > 100 µM | COLO 205 > 100 µM | HOP-62 > 100 µM | K562 > 100 µM | MDA-MB-231 > 100 µM | Malme-3M > 100 µM | NCI-H226 > 100 µM | NCI-H23 > 100 µM | OVCAR-3 > 100 µM | OVCAR-4 > 100 µM | SN12C > 100 µM | SNB-75 12.3 µM | T47D > 100 µM | UACC-62 > 100 µM
> 100 µM: HCT-15
